Test results published in patent EP2519511B1, “NOVEL PIPERINE DERIVATIVES AS GABA-A RECEPTORS MODULATORS” (Universität Wien, priority 2009, dated 2011).
Where “and” joins values, the source holds several entries; their conditions need not be identical. Equal values may be shown once.

Assays:
PTZ-induced seizures = experiment: Seizure threshold by PTZ tail-vein infusion; assay type: in vivo, mice; settings: for effects on seizure threshold: PTZ 30 min after i.p. injection; for seizure threshold: 30 min after i.p. injection
Protocol: (§1) Piperine was isolated from Piper nigrum as described by Zaugg et al. (2010) and obtained from SigmaAldrich (Vienna, Austria), respectively. Piperine derivatives were synthesized as described above. Stock solutions (1mg/10 µl) were prepared in DMSO (Dimethyl Sulfoxide, Sigma, Austria).Working concentrations were adjusted by dilution with 0.9% sodiumchloride. pH was adjusted to 7.2-7.4 with NaOH. For better solubility 3% of Tween80 was added to all solutions. All solutions were freshly prepared every day prior to experiments. Care was taken for equal amounts of DMSO in the actein and control solutions.
(§2) Male mice (C57BI/6N) were obtained from Charles River Laboratories (Germany). For breeding and maintenance mice were group housed with free access to food and water. Temperature was fixed to 23±1 °C and 60% humidity with a 12 h light-dark cycle (lights on 0700-1900 hours). Male mice at 3-6 months age were tested in all experiments. Every effort was taken to minimize the number of animals used (Khom et al., 2010).
Seizure threshold was determined by PTZ tail-vein infusion on freely moving animals at a rate of 100 µl/min ([…] PTZ in saline, pH 7.4). […] Animals were immediately killed by cervical displacement after the first generalized seizure. The seizure threshold dose was calculated from the infused volume in relation to body weight (Loacker et al. 2007). Piperine and piperine derivatives were applied at doses from 0.1 to 30 mg/kg 30 min before PTZ infusion. Control animals were pretreated with 10 % DMSO in saline containing 3 % Tween 80 (i. e. the solvent for all piperine doses).

[1] = biological target: human TRPV1 receptor (hTRPV1) (Homo sapiens, UniProt Q8NER1); experiment: Activation of cation current through TRPV1 expressed in Xenopus oocytes; assay type: cell-based; settings: 300 µM applied to oocytes, Fig. 4
human TRPV1 receptor (hTRPV1), sequence (Q8NER1 whole entry): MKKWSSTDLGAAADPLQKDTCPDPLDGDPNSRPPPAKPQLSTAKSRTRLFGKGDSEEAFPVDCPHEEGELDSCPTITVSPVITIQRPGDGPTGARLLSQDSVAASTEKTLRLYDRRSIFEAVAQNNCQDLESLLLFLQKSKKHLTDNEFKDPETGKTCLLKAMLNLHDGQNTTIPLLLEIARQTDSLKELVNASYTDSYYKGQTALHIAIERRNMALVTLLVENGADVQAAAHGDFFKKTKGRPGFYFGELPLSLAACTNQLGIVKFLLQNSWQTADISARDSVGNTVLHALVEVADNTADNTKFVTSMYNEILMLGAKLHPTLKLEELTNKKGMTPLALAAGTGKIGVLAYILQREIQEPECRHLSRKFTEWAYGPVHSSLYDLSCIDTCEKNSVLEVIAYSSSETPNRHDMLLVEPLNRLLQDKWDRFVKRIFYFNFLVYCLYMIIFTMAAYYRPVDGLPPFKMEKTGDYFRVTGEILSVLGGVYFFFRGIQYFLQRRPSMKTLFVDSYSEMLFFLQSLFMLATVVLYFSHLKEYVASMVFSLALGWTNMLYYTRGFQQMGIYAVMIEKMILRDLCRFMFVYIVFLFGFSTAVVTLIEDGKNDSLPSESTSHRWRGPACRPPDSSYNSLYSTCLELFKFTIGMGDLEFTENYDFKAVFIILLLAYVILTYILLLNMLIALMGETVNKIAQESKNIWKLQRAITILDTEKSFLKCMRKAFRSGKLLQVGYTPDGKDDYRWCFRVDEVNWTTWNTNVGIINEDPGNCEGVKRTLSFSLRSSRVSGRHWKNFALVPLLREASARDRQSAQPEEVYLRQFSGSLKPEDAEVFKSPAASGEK
Protocol: cRNA encoding for the human TRPV1 receptor (hTRPV1) was injected into Xenopus oocytes as previously described (Hu et al. 2004).

[2] = biological target: GABAA channels composed of α1β2γ2 subunits (Homo sapiens, UniProt P14867+P18507+P47870); experiment: Modulation of IGABA, two-microelectrode voltage clamp in Xenopus laevis oocytes; assay type: cell-based; settings: α1β2γ2, GABA EC5-10, Fig. 2
GABAA channels composed of α1β2γ2 subunits, sequence (P14867 28-456): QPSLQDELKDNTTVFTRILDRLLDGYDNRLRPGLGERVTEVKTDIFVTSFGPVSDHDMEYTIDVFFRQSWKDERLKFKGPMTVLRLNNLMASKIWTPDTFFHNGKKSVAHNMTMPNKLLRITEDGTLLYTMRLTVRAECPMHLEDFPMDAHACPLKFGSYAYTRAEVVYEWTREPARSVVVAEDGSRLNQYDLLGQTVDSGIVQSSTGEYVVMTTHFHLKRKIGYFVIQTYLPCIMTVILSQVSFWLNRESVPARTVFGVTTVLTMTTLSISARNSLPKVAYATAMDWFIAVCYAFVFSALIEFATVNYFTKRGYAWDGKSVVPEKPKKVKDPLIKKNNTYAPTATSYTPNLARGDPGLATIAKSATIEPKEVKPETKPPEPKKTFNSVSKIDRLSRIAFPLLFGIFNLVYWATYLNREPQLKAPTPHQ
GABAA channels composed of α1β2γ2 subunits, sequence (P47870 25-512 limits assumed): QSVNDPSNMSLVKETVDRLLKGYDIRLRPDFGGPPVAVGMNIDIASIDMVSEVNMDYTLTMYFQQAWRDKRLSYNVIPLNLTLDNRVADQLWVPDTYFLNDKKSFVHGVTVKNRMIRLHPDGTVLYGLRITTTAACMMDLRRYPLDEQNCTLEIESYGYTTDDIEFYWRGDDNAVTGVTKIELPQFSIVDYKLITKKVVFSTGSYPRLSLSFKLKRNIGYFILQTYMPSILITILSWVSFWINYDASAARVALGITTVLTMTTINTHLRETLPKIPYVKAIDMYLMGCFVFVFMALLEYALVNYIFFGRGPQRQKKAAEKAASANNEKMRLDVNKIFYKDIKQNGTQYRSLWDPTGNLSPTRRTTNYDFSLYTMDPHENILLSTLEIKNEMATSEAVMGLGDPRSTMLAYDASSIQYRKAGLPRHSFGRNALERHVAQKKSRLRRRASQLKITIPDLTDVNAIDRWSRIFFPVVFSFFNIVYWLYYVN
GABAA channels composed of α1β2γ2 subunits, sequence (P18507 40-475): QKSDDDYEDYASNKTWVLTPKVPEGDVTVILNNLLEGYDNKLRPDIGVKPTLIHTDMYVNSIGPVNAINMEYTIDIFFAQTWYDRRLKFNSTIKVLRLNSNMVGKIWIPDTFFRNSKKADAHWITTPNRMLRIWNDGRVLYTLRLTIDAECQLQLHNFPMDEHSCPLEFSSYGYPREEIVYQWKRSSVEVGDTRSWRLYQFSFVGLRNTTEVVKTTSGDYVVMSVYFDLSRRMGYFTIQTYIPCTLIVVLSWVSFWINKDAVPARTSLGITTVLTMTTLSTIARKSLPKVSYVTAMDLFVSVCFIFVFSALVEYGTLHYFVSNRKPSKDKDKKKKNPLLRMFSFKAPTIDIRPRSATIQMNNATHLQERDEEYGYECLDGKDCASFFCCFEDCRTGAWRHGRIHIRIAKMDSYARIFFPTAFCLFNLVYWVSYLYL
Protocol: The following paragraphs describe the preparation of oocytes expressing the specific GABAA receptor subtype composed of α1, β2 and γ2 subunits and the subsequent analysis of the concentration-response curves of the stimulation of chloride currents through GABAA receptors (IGABA).
Preparation of stage V-VI oocytes from Xenopus laevis, synthesis of capped off run-off poly(A^+) cRNA transcripts from linearized cDNA templates (pCMV vector) was performed as described (Khom et al. 2006). Briefly, female Xenopus laevis (NASCO, USA) were anaesthetised by exposing them for 15 minutes to a 0.2 % solution of MS-222 (methane sulfonate salt of 3-aminobenzoic acid ethyl ester; Sandoz) before surgically removing parts of the ovaries. Follicle membranes from isolated oocytes were enzymatically digested with 2 mg/ml collagenase (Type 1A, Sigma). One day after isolation, the oocytes were injected with about […] of DEPC- treated water (diethyl pyrocarbonate, Sigma, Germany) containing the different cRNAs (encoding for α1, β2 and γ2 subunits) at a concentration of approximately 300 - 3000 pg/µl/subunit. The amount of cRNA was determined by means of a NanoDrop ND-1000 (Kiskerbiotech, Steinfurt, Germany).
Oocytes were stored at 18°C in ND96 solution (Methfessel et al., 1986). […]
Stimulation of chloride currents by modulators of the GABAA receptor was measured at a GABA concentration eliciting between 5 and 10 % of the maximal current amplitude (EC5-10). The EC5-10 was determined at the beginning of each experiment.
Enhancement of the chloride current was defined as (I(GABA+Comp)/IGABA) - 1, where I(GABA+Comp) is the current response in the presence of a given compound (piperine or piperin derivatives) and IGABA is the control GABA current. […] Statistical significance was calculated using paired Student t-test with a confidence interval of p < 0.05 (Khom et al., 2007). […]

Male mice (C57BI/6N) [3] = experiment: Open Field test (OF); assay type: in vivo; settings: 30 mg/kg bodyweight; for effect on total ambulation / total distance: 30 min after i.p. injection, Fig. 11B
Protocol: as §1, §2
Ambulation was tested over 10 min in a 50x50 cm flexfield box equipped with infrared rearing detection. Illumination was set to 150 lux. Animals were video monitored and their explorative behavior was analyzed using the Actimot 2 equipment and software (TSE-systems, Bad Homburg, Germany). Arenas were subdivided into border (up to 8 cm from wall), center (20x20 cm, i.e. 16% of total area), and intermediate area according to the recommendations of EMPRESS (European Mouse Phenotyping Resource of Standardised Screens; http://empress.har.mrc.ac.uk).

Male mice (C57BI/6N) [4] = experiment: Elevated Plus Maze test (EPM); assay type: in vivo; settings: for total distance travelled in the EPM: compared to control
Protocol: as §1, §2
The animals's behavior was tested over 5 min on an elevated plus maze 1 m above ground consisting of two closed and two open arms, each 50x5 cm in size (Khom et al., 2010). The test instrument was built from gray PVC; the height of closed arm walls was 20 cm. Illumination was set to 180 lux. Animals were placed in the center, facing an open arm. Analysis of open and closed arm entries and time on open arm was automatically done with Video-Mot 2 equipment and software (Khom et al., 2010).

| cation current through TRPV1 receptors [1] | SMILES | effects on seizure threshold (PTZ-induced seizures; Fig. 12) | modulation of IGABA [2] | effect on total ambulation / total distance (Male mice (C57BI/6N) [3]) | time spent on the open arms (OA) in % of the total time (Male mice (C57BI/6N) [4]; 0.3 mg/kg bodyweight, i.p.) | further results |
| --- | --- | --- | --- | --- | --- | --- |
| no current was induced | CCCCN(CCCC)C(=O)/C=C/C=C/c1ccc2c(c1)OCO2 [SCT-29] | particularly active at low concentrations | positive allosteric modulatory effect by enhancing IGABA | no effect on ambulation | not statistically significant | cation current through TRPV1 receptors ([1]; listed as SCT29): none of the derivatives SCT29, SCT64 or SCT66 induced cation currents |
| no current was induced | CC(C)N(C(=O)/C=C/C=C/c1ccc2c(c1)OCO2)C(C)C [SCT-46] |  |  |  |  |  |
|  | CCN(CC)C(=O)/C=C/C=C/c1ccc2c(c1)OCO2 [SCT-54] | particularly active at low concentrations |  | no effect on ambulation |  |  |
| no current was induced | CCCN(CCC)C(=O)/C=C/C=C/c1ccc2c(c1)OCO2 [SCT-64] | particularly active at low concentrations | positive allosteric modulatory effect by enhancing IGABA | reduced the total distance | 41.6 ± 3.2% and 44.2 ± 3.3% | cation current through TRPV1 receptors ([1]; listed as SCT64): none of the derivatives SCT29, SCT64 or SCT66 induced cation currents; time spent on the open arms (OA) in % of the total time (Male mice (C57BI/6N) [4]; 10 mg/kg bodyweight, i.p.): 59.6 ± 4.9%; total distance travelled in the EPM (Male mice (C57BI/6N) [4]; i.p.): reducing slightly the total ambulation at doses ≥1 mg/kg bodyweight |
| no current was induced | CC(C)CN(CC(C)C)C(=O)/C=C/C=C/c1ccc2c(c1)OCO2 [SCT-66] |  | positive allosteric modulatory effect by enhancing IGABA | reduced the total distance | 40.8 ± 3.2% and 38.1 ± 5.1% | minimal effective dose (PTZ-induced seizures; Mus musculus, ip, 0.5 h, i.p., Fig. 12, read-out: doses of first significant effects on seizure threshold): ≥ 10 mg/kg; cation current through TRPV1 receptors ([1]; listed as SCT66): none of the derivatives SCT29, SCT64 or SCT66 induced cation currents; time spent on the open arms (OA) in % of the total time (Male mice (C57BI/6N) [4]; 3 mg/kg bodyweight, i.p.): 46.5 ± 6.6%; total distance travelled in the EPM (Male mice (C57BI/6N) [4]; i.p.): no significant effect on ambulation |
| no current was induced | CCCCN(CCCC)C(=O)/C=C/C=C/c1cc(OC)c(OC)c(OC)c1 [SCT-68] |  |  |  |  |  |
|  | O=C(/C=C/C=C/c1ccc2c(c1)OCO2)N1CCCCC1 [piperine, Piperine] |  |  |  | 42.7 ± 4.4% | seizure threshold (PTZ-induced seizures; 3 mg/kg): 46.2 ± 5.44; seizure threshold (PTZ-induced seizures; 10 mg/kg): 48.7 ± 2.13; seizure threshold (PTZ-induced seizures; 30 mg/kg): 30.3 ± 3.43; reduction of ambulation compared to control littermates (Male mice (C57BI/6N) [3]; i.p.): more than 50%; traveled distance (total ambulation) (Male mice (C57BI/6N) [3]; i.p.): 16.5 ±3.8 m; time spent on the open arms (OA) in % of the total time (Male mice (C57BI/6N) [4]; 0.1 mg/kg bodyweight, 30 min after i.p. injection): no significant effect; time spent on the open arms (OA) in % of the total time (Male mice (C57BI/6N) [4]; 1 mg/kg bodyweight, i.p.): 45.6 ± 6.6% |
